The values below come from patent publication US8415376B2, “Inhibitors of PI3 kinase” (Amgen Inc., priority 2008, dated 2013).

The IC50 is the concentration at which inhibition is half-maximal.

The target in assay [1] is T1, PI3Kα (Homo sapiens, UniProt P42336).
T1 construct: Full length p110 subunits of PI3K α, β and δ, N-terminally labeled with polyHis tag; polyHis (N); made in house; host or cells: Sf9 insect cells (baculovirus)
The assay can be described thus: In vitro PI3 kinase enzyme assay (PI3K ATP loss), alpha. Particulars: average if run more than once; read-out: ATP Loss (PBKα) IC50 μM (Avg). The assay is classed as biochemical.
Method: (§1) Full length p110 subunits of PI3K α, β and δ, N-terminally labeled with polyHis tag, can be co-expressed with p85 with Baculo virus expression vectors in sf9 insect cells. P110/p85 heterodimers can be purified by sequential Ni-NTA, Q-HP, Superdex-100 chromatography. Purified α, β and δ isozymes can be stored at −20° C. in 20 mM Tris, pH 8, 0.2M NaCl, 50% glycerol, 5 mM DTT, 2 mM Na cholate. […] The γ isozyme can be purified by sequential Ni-NTA, Superdex-200, Q-HP chromatography. The γ isozyme can be stored frozen at −80° C. in NaH2PO4, pH 8, 0.2M NaCl, 1% ethylene glycol, 2 mM β-mercaptoethanol.
(§2) In Vitro PI3 Kinase Enzyme Assays (PI3K Atploss)
(§3) PI3K enzyme assays (alpha, beta, delta and gamma) can be performed in 25 μL with the above final concentrations of components in white polyproplyene plates. Phosphatidyl inositol phosphoacceptor, PtdIns(4,5)P2 (eg. P4508) can be obtained from Echelon Biosciences, Salt Lake City, Utah. […] Test compounds can be dissolved in DMSO and diluted with three-fold serial dilutions. The compound in DMSO (1 μL) may be added per test well, and the inhibition relative to reactions containing no compound, with and without enzyme can be determined After assay incubation at RT, the reaction can be stopped and residual ATP can be determined by addition of an equal volume of a commercial ATP bioluminescence kit (Perkin Elmer EasyLite, Perkin Elmer, Waltham, Mass.) according to the manufacturer's instructions, and detected using an Analyst GT luminometer.

Assay [2] has as its target T2, PI3Kβ (Homo sapiens, UniProt P42338).
T2 construct: Full length p110 subunits of PI3K α, β and δ, N-terminally labeled with polyHis tag; polyHis (N); made in house; host or cells: Sf9 insect cells (baculovirus)
The assay can be described thus: In vitro PI3 kinase enzyme assay (PI3K ATP loss), beta. Format: biochemical. As to conditions: average if run more than once.
Method: as §1, §2, §3

Assay [3] relates to phosphorylation of Akt at Ser473. The experiment in a line: Cell-based phospho-Akt Ser473 assay (HCT116 cell). Particulars: HCT 116 human colon carcinoma cells, IGF-1 stimulated; average. The source says:
Cell-Based Phospho-Akt Ser473 Assay (HCT116 Cell)
This assay determines the ability of a compound to inhibit the phosphorylation of […] in Akt using a MSD based sandwich immunoassay (Meso Scale Detection, Meso Scale Discovery (MSD), Gaithersburg, Md.). HCT 116 human colon carcinoma cell lines can be grown in McCoy's 5A growth medium (GIBCO, Carlsbad, Calif.) containing 10% FBS (GIBCO, Carlsbad, Calif.) and X1 Penicillin-streptomycin-glutamine (GIBCO, Carlsbad, Calif.). Prior to the assay, cells can be detached from the culture flask with trypsin, and re-suspended in complete media to give a final concentration of 1.6×10^5 cells per mL. Aliquots (100 μl) of the HCT116 cell suspension can be seeded into each well of a 96 well tissue culture plate to give a final density of 16,000 cells per well. Cells can then be incubated overnight at 37° C.
The following day the cells can be treated with serially diluted test compounds and incubated for 2 hours at 37° C. The culture media on the HCT 116 cells can be replaced with 189 μL McCoys media, supplemented with 0.1% BSA (ICN Biomedicals, Inc., Costa Mesa, Calif.). Compounds can be prepared as either 10 mM or 0.5 mM stock solutions in DMSO, and serially diluted 3 fold in a 10-point dose-response curve to give final concentrations that are 200-fold greater than the desired final test concentration. Aliquots (1 μL) of serially-diluted compounds can be transferred to 96 well tissue culture plates containing the HCT 116 cells. […] As a maximum response control, wells can contain 0.5% DMSO in place of compound. The plates can be mixed at 700 rpm for 2 min to ensure even distribution of the test compound and incubated for 2 hours at 37° C. Cells can then be stimulated with insulin-like growth factor 1 (Sigma, St Louis, Mo.) at final concentration of 100 ng/ml for 15 minutes at 37° C. The media can then be removed and the cells treated with 80 μL cell-lysis buffer (MSD) containing a cocktail of protease and phosphatase inhibitors for one hour at 4° C.
25 μL Cell lysate can then be transferred to pre-blocked MSD assay plates pre-coated with a capture antibody specific for Akt, and the plates can be incubated for 2 hours at room temperature. The cell lysates can then be removed and plates can then be washed four times with 200 μl per well of Tris wash buffer (500 mM Tris, PH 7.5, 1.5 M NaCl, 0.2% Tween-20). Subsequently cells can be incubated for 1 hour at room temperature with a 25 μL solution containing the detection antibody, anti-phospho Akt (Ser 473) labeled with an electrochemiluminescent compound (Meso Scale Discovery SULPHO-TAG™ label, MSD, Gaithersburg, Md.). The detection antibody can be removed and plates can then be washed four times with 200 μL per well of Tris wash buffer. An aliquot of 150 μL of diluted MSD read buffer can then be applied to each well, and the electrochemiluminescent signal can be measured using a MSD SECTOR™ plate reader (Meso Scale Discovery, Gaithersburg, Md.). This instrument measures the intensity of emitted light to determine a quantitative measure of phosphorylated Akt in each well. The dose-response data obtained with each compound can be analyzed and the IC50 inhibition of Akt phosphorylation at Ser473 can be calculated.
Activity data for the compounds tested in the PI3K cell based Akt assay is provided in Table 1 under the column heading HCT116 Cell.

Each structure is given as a SMILES string.

T1 sequence (P42336 whole entry): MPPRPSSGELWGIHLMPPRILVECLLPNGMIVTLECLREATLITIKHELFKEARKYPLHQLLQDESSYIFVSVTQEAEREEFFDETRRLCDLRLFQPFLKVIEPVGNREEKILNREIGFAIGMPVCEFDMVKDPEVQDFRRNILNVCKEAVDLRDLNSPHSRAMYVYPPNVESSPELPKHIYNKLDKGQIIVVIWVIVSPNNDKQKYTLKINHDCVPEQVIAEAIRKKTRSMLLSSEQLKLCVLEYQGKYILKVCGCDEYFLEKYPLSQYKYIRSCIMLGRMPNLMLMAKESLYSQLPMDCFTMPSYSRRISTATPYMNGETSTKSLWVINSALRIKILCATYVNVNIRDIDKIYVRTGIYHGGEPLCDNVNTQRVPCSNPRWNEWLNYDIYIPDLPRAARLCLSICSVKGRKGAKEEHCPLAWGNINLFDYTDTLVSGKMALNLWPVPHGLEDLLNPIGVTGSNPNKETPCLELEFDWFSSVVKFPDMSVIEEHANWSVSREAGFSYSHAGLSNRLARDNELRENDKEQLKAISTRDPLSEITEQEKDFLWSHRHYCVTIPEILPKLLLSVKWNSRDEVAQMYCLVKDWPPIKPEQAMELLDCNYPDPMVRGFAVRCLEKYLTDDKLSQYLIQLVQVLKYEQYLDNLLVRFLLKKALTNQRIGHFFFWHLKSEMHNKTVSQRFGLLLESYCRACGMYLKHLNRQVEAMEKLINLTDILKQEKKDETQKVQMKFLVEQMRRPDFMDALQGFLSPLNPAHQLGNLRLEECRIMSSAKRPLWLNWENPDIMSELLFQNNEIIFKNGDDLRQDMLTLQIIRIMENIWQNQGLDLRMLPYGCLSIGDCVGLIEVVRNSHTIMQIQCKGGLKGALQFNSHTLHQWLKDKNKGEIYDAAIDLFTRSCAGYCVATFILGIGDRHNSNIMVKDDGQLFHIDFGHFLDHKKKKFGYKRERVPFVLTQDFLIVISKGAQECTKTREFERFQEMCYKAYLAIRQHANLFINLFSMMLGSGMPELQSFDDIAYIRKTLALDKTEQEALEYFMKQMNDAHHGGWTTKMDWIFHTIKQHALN
T1 sequence (P27986 whole entry partner): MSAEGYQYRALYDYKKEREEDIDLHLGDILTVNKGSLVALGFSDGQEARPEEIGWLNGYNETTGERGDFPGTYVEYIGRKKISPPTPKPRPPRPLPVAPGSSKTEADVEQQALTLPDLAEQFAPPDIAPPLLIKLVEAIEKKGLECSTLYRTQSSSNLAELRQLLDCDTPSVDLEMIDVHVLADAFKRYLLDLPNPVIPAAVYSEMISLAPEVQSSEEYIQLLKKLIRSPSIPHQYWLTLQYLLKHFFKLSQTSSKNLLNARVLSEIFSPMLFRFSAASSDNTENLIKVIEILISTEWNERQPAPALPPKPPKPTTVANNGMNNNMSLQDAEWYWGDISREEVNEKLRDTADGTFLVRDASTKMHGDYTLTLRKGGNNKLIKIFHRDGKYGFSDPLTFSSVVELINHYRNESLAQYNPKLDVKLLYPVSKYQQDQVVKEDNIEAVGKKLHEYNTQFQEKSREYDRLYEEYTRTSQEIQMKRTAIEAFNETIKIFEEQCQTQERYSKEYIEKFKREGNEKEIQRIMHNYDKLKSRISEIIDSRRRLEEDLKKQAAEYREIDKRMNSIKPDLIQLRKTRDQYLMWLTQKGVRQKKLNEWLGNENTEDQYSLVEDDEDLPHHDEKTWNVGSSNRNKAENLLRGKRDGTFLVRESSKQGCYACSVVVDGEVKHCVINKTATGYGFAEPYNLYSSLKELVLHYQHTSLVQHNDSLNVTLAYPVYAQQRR
T2 sequence (P42338 whole entry): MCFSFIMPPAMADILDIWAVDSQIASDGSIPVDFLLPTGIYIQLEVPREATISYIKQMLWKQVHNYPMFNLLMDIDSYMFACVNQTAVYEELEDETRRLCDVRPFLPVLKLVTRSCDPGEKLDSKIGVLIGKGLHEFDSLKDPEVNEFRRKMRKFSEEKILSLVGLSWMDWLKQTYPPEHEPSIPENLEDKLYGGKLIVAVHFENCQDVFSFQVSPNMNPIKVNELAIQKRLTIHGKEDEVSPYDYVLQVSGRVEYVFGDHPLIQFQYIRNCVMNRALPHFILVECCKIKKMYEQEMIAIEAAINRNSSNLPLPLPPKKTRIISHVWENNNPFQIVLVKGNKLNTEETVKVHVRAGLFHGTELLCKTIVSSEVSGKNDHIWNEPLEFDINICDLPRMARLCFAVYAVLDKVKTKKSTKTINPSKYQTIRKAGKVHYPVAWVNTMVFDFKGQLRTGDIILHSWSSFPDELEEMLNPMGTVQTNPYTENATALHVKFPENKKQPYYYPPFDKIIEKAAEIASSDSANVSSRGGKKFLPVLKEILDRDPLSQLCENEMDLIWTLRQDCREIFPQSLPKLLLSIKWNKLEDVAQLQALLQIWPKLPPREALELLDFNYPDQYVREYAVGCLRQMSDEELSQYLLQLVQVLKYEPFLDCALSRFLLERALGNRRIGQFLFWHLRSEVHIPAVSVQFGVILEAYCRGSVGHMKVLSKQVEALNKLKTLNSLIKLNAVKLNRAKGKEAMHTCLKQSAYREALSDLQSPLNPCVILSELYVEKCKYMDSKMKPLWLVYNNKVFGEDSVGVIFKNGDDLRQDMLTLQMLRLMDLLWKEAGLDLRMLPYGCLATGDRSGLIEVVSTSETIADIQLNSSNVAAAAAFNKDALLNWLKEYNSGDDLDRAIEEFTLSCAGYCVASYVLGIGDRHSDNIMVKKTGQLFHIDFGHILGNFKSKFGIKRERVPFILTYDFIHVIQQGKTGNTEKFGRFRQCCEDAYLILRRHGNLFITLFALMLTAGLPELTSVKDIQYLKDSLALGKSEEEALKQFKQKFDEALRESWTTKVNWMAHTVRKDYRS
T2 sequence (P27986 whole entry partner): as the sequence (P27986 whole entry partner) above

Take `O=S(=O)(Nc1cc(-c2ccc3ncc(O)cc3c2)cnc1Cl)c1ccc(F)cc1` [Example 22, N-(2-chloro-5-(3-hydroxy-6-quinolinyl)-3-pyridinyl)-4-fluorobenzenesulfonamide]: the half-inhibitory concentration (IC50) in assay [1] was determined as 0.0114 µM; in assay [2], 0.0552 µM; in assay [3] it was 0.654 µM.
On the same counts, the results for `CC(=O)N1CCN(c2cnc3ccc(-c4cnc(Cl)c(NS(=O)(=O)c5ccc(F)cc5)c4)cc3n2)CC1` [Example 56, N-(5-(3-(4-acetyl-1-piperazinyl)-6-quinoxalinyl)-2-chloro-3-pyridinyl)-4-fluorobenzenesulfonamide] are 0.0057 µM, 0.0318 µM and 0.0236 µM.
On the same counts, the results for `CC1CN(c2ccnc3ccc(-c4cnc(Cl)c(NS(=O)(=O)c5ccc(F)cc5)c4)cc23)CC(C)O1` (stereo not drawn) [Example 30, N-(2-chloro-5-(4-(2,6-dimethyl-4-morpholinyl)-6-quinolinyl)-3-pyridinyl)-4-fluorobenzenesulfonamide] are 0.0041 µM, 0.0302 µM and 0.0228 µM.
On the same counts, the results for `O=S(=O)(Nc1cc(-c2ccc3ncc(N4CCCCC4)nc3c2)cnc1Cl)c1ccc(F)cc1` [Example 54, N-(2-chloro-5-(3-(1-piperidinyl)-6-quinoxalinyl)-3-pyridinyl)-4-fluorobenzenesulfonamide] are 0.0027 µM, 0.0842 µM and 0.141 µM.
On to `O=S(=O)(Nc1cc(-c2ccc3ncc(NCCOc4ccccc4)nc3c2)cnc1Cl)c1ccc(F)cc1` [Example 57, N-(2-chloro-5-(3-((2-phenoxyethyl)amino)-6-quinoxalinyl)-3-pyridinyl)-4-fluorobenzenesulfonamide], for which the IC50 in assay [1] turned out to be 0.0022 µM; in assay [2], 0.0079 µM; in assay [3], 0.0451 µM.
On the same counts, the results for `COc1ccc(S(=O)(=O)Nc2cc(-c3ccc4nc(N)ccc4c3)cnc2Cl)cc1` [Example 46, N-(5-(2-amino-6-quinolinyl)-2-chloro-3-pyridinyl)-4-methoxybenzenesulfonamide] are 0.136 µM, 0.18 µM and 0.108 µM.
With `O=S(=O)(Nc1cc(-c2ccc3nccc(-c4ccccc4)c3c2)cnc1Cl)c1ccc(F)cc1` [Example 36, N-(2-chloro-5-(4-phenyl-6-quinolinyl)-3-pyridinyl)-4-fluorobenzenesulfonamide], the figures for the half-maximal inhibitory concentration (IC50) in assay [1], in assay [2] and in assay [3] were 0.0071 µM, 0.0149 µM and 0.0914 µM, respectively.
On the same counts, the results for `COC1CCCN(c2cnc3ccc(-c4cnc(Cl)c(NS(=O)(=O)c5ccc(F)cc5)c4)cc3n2)C1` (stereo not drawn) [Example 66] are 0.0027 µM, 0.03 µM and 0.0405 µM.
On the same counts, the results for `CC(c1ccccc1)N1CCN(c2ccnc3ccc(-c4cnc(Cl)c(NS(=O)(=O)c5ccc(F)cc5)c4)cc23)CC1` (stereo not drawn) [Example 29, N-(2-chloro-5-(4-(4-(1-phenylethyl)-1-piperazinyl)-6-quinolinyl)-3-pyridinyl)-4-fluorobenzenesulfonamide] are 0.0069 µM, 0.0449 µM and 0.345 µM.
On the same counts, the results for `COc1ccc(S(=O)(=O)Nc2cc(-c3ccc4nccc(N5CCC(OC)CC5)c4c3)cnc2Cl)cc1` [Example 50, N-(2-chloro-5-(4-(4-methoxy-1-piperidinyl)-6-quinolinyl)-3-pyridinyl)-4-methoxybenzenesulfonamide] are 0.003 µM, 0.0366 µM and 0.107 µM.
For the compound `CS(=O)(=O)Nc1cc(-c2ccc3nccc(Oc4ccccc4)c3c2)cnc1Cl` [Example 5, N-(2-chloro-5-(4-phenoxy-6-quinolinyl)-3-pyridinyl)methanesulfonamide], the half-maximal inhibitory concentration (IC50) in assay [1] is 0.255 µM; in assay [2], 0.105 µM; in assay [3], 1.14 µM.
On the same counts, the results for `COCC1CCCN1c1cnc2ccc(-c3cnc(Cl)c(NS(=O)(=O)c4ccc(F)cc4)c3)cc2n1` (stereo not drawn) [Example 68, N-(2-chloro-5-(3-(2-(methoxymethyl)-1-pyrrolidinyl)-6-quinoxalinyl)-3-pyridinyl)-4-fluorobenzenesulfonamide] are 0.0081 µM, 0.0358 µM and 0.0434 µM.
On the same counts, the results for `CC(C)(C)OC(=O)NCCOc1ccnc2ccc(-c3cnc(Cl)c(NS(=O)(=O)c4ccc(F)cc4)c3)cc12` [Example 3, tert-butyl(2-((6-(6-chloro-5-(((4-fluorophenyl)sulfonyl)amino)-3-pyridinyl)-4-quinolinyl)oxy)ethyl)carbamate] are 0.0678 µM, 0.682 µM and 1.66 µM.
On the same counts, the results for `COc1ccc(S(=O)(=O)Nc2cc(-c3ccc4nccc(N(C)C)c4c3)cnc2Cl)cc1` [Example 49, N-(2-chloro-5-(4-(dimethylamino)-6-quinolinyl)-3-pyridinyl)-4-methoxybenzenesulfonamide] are 0.0074 µM, 0.0151 µM and 0.273 µM.
As to `O=S(=O)(Nc1cc(-c2ccc3nccc(N4CCC(O)CC4)c3c2)cnc1Cl)c1ccc(F)cc1` [Example 27, N-(2-chloro-5-(4-(4-hydroxy-1-piperidinyl)-6-quinolinyl)-3-pyridinyl)-4-fluorobenzenesulfonamide], the 50% inhibitory concentration (IC50) in assay [1] worked out at 0.0041 µM; in assay [2], 0.0126 µM; in assay [3], 0.176 µM.
On the same counts, the results for `O=S(=O)(Nc1cc(-c2ccc3ncccc3c2)cnc1Cl)c1ccc(F)cc1` [Example 7, N-(2-chloro-5-(6-quinolinyl)-3-pyridinyl)-4-fluorobenzenesulfonamide] are 0.0099 µM, 0.0277 µM and 1.3 µM.
On the same counts, the results for `COc1ccnc2ccc(-c3cnc(Cl)c(NS(=O)(=O)c4ccc(F)cc4)c3)cc12` [Example 8, N-(2-chloro-5-(4-methoxy-6-quinolinyl)-3-pyridinyl)-4-fluorobenzenesulfonamide] are 0.0127 µM, 0.0147 µM and 0.222 µM.
With `CC1CN(c2cnc3ccc(-c4cnc(Cl)c(NS(=O)(=O)c5ccc(F)cc5)c4)cc3n2)CC(C)O1` (stereo not drawn) [Example 67, N-(2-chloro-5-(3-(2,6-dimethyl-4-morpholinyl)-6-quinoxalinyl)-3-pyridinyl)-4-fluorobenzenesulfonamide], the half-maximal inhibitory concentration (IC50) was 0.0029 µM in assay [1], 0.0648 µM in assay [2] and 0.0203 µM in assay [3].
On the same counts, the results for `COc1cnc2ccc(-c3cnc(Cl)c(NS(=O)(=O)c4ccc(F)cc4)c3)cc2c1` [Example 4, N-(2-chloro-5-(3-methoxy-6-quinolinyl)-3-pyridinyl)-4-fluorobenzenesulfonamide] are 0.0162 µM, 0.0253 µM and 0.186 µM.
On the same counts, the results for `CC(C)(C)OC(=O)N1CCCC(CNc2cnc3ccc(-c4cnc(Cl)c(NS(=O)(=O)c5ccc(F)cc5)c4)cc3n2)C1` (stereo not drawn) [Example 59, tert-butyl 3-(((7-(6-chloro-5-(((4-fluorophenyl)sulfonyl)amino)-3-pyridinyl)-2-quinoxalinyl)amino)methyl)-1-piperidinecarboxylate] are 0.0031 µM, 0.0225 µM and 0.136 µM.
Turning to `CC(Nc1cnc2ccc(-c3cnc(Cl)c(NS(=O)(=O)c4ccc(F)cc4)c3)cc2n1)c1ccc(F)cc1` (stereo not drawn) [Example 60, N-(2-chloro-5-(3-((1-(4-fluorophenyl)ethyl)amino)-6-quinoxalinyl)-3-pyridinyl)-4-fluorobenzenesulfonamide], the IC50 in assay [1] was 0.0103 µM; in assay [2], 0.0436 µM; in assay [3], 0.569 µM.
